Experimental data from paper PMC9706480, “Rhamnosyltransferases involved in the biosynthesis of flavone rutinosides in Chrysanthemum species” (Plant Physiology, 2022).

Key:
Assay in all cases: UPLC rhamnosylation assay, Michaelis-Menten fit
Settings in all cases: 0.1 mM UDP-rhamnose as co-substrate; pH 7.5, 37 °C
CiRhaT-JX4x (UGT79A21) = test system: T1, CiRhaT-JX4x (UGT79A21); type: biochemical, Chrysanthemum indicum
T1 construct: full-length, 469 aa, MBP fusion (pMAL-c5X, tag removal not mentioned), E. coli Rosetta (DE3)

CnRhaT-HB2x (UGT79A23) = test system: T2, CnRhaT-HB2x (UGT79A23); type: biochemical, Chrysanthemum nankingense
T2 construct: full-length, 469 aa, MBP fusion (pMAL-c5X, tag removal not mentioned), E. coli Rosetta (DE3)

CiRhaT-HB2x (UGT79A22) = test system: T3, CiRhaT-HB2x (UGT79A22); type: biochemical, Chrysanthemum indicum
T3 construct: full-length, 469 aa, MBP fusion (pMAL-c5X, tag removal not mentioned), E. coli Rosetta (DE3)

CiRhaT-GD4x (UGT79A20) = test system: T4, CiRhaT-GD4x (UGT79A20); type: biochemical, Chrysanthemum indicum
T4 construct: full-length, 469 aa, MBP fusion (pMAL-c5X, tag removal not mentioned), E. coli Rosetta (DE3)

Row | Structure (SMILES) | Km (CiRhaT-JX4x (UGT79A21)) [µM] | Km (CnRhaT-HB2x (UGT79A23)) [µM] | Km (CiRhaT-HB2x (UGT79A22)) [µM] | Km (CiRhaT-GD4x (UGT79A20)) [µM]
1 | COc1ccc(-c2cc(=O)c3c(O)cc(O[C@@H]4O[C@H](CO)[C@@H](O)[C@H](O)[C@H]4O)cc3o2)cc1 [compound 1, acacetin-7-O-glucoside] | 8.27 ± 0.984 | 9.45 ± 1.5 | 8.71 ± 1.79 | 14.2 ± 1.36
2 | O=c1cc(-c2ccc(O)cc2)oc2cc(O[C@@H]3O[C@H](CO)[C@@H](O)[C@H](O)[C@H]3O)cc(O)c12 [compound 2, apigenin-7-O-glucoside] | 45.3 ± 6.08 | 140 ± 32.1 | 57.1 ± 5.34 | 32.4 ± 5.9
3 | COc1ccc(-c2cc(=O)c3c(O)cc(O[C@@H]4O[C@H](CO)[C@@H](O)[C@H](O)[C@H]4O)cc3o2)cc1O [compound 3, diosmetin-7-O-glucoside] | 7.67 ± 0.809 | 17.7 ± 2.82 | 9.35 ± 1.38 | 12.9 ± 1.27
